From publication PMC9241669, “Allantodapsone is a Pan-Inhibitor of Staphylococcus aureus Adhesion to Fibrinogen, Loricrin, and Cytokeratin 10” (Microbiology Spectrum, 2022)
Where “and” joins values, the source holds several entries; their conditions need not be identical. Equal values may be shown once. Read-outs that look alike come from different tables or passages of the source.

What was measured:
Type in all cases: cell-based, Staphylococcus aureus
S. aureus Newman [1] = assay: Adhesion of S. aureus Newman to immobilized fibrinogen (crystal violet)
Procedure: FIG 1 Allantodapsone inhibits S. aureus Newman adhesion to fibrinogen. Dose response curves for S. aureus Newman (A), L. lactis ClfA (B), and L. lactis ClfB (C) adhesion to fibrinogen. Fibrinogen was used to coat plates at 4°C overnight at 10 μg/mL. Wells were washed with PBS and blocked with 1% BSA. Washed bacteria (OD600 of 1) were mixed with the relevant concentration of allantodapsone or vehicle control (DMSO) for 5 min, and added to the wells, incubating for 2 h at 37°C. Adherent cells were washed, fixed, and stained with crystal violet, and wells further washed. The dye was dissolved in acetic acid and the absorbance measured at 570 nm. IC50 values were generated using GraphPad Prism 9.0 GraphPad software, San Diego, CA. Data are representative of three experiments with error presented as SEM.
(§1) FIG 2 Allantodapsone inhibits S. aureus adhesion to fibrinogen. (A) S. aureus Newman stationary phase and (B) exponential phase. (C) S. aureus SH1000 stationary phase and (D) exponential phase bacteria. Fibrinogen was used to coat plates at 4°C overnight at 10 μg/mL. Wells were washed with PBS and blocked with 1% BSA. Washed bacteria (OD600 of 1) were mixed with the relevant concentration of allantodapsone or vehicle control for 5 min, and added to the wells, incubating for 2 h at 37°C. Adherent cells were washed, fixed, and stained with crystal violet, and wells further washed. The dye was dissolved in acetic acid and the absorbance measured at 570 nm. Compounds were screened at a concentration of 70 μM and compared to their vehicle control. Statistical analysis was carried out using repeated measures ANOVA followed by multiple comparisons Dunnett’s tests using GraphPad PRISM. **, P ≤ 0.01; ***, P ≤ 0.001; ****, P ≤ 0.0001 (n = 3).
(§2) Adhesion assays were carried out according to Hartford et al. ([37]). Briefly, plates were coated with 10 μg/mL fibrinogen (Calbiochem, Darmstadt, Germany) or 20 μg/mL fibronectin (Sigma-Aldrich, Ireland) for 2 h at 37°C or for 16 h at 4°C. Plates were blocked with 1% BSA at 37°C for 1 h and washed 3 times in PBS. Washed bacteria were incubated at 37°C for 2 h. Adherent bacteria were washed three times in PBS and fixed in 5–9% formaldehyde at room temperature for 30 min. Wells were washed three times in PBS and stained using 5% crystal violet for 20 min. Wells were washed three times in PBS, and the crystal violet solubilized using 5% acetic acid. Plates were read at 570 nm on a Wallac Victor2, (Shelton, CT, USA). The minimum adhesion inhibitory concentration (MAIC) was determined as the concentration inhibiting greater than 90% bacterial adhesion.
(§3) Compounds were added to the bacterial suspension prior to addition to the wells. In each experiment, vehicle controls were prepared using the same volume of vehicle for the matching test compound.

S. aureus SH1000 = assay: Adhesion of S. aureus SH1000 to immobilized fibrinogen (crystal violet); conditions: for IC50: Staphylococcus aureus
Procedure: as §1, §2, §3

S. aureus Newman [2] = assay: Adhesion of S. aureus Newman to GST-L2v loricrin; conditions: for concentration giving full inhibition of adhesion to L2v loricrin: S. aureus Newman, GST-L2v
Procedure: FIG 4 Allantodapsone inhibits S. aureus adhesion to loricrin and cytokeratin 10. Dose-response curve for adhesion of S. aureus Newman to GST-L2v loricrin (A) and CK10 (C). (B) Inhibition of recombinant ClfB N2N3 binding to immobilized GST-L2v loricrin by allantodapsone. (D) Inhibition of S. aureus Newman adhesion to GST-L2v loricrin by allantodapsone derivatives. Purified GST-L2v or CK10 were used to coat plates at 4°C overnight. Wells were washed with PBS and blocked with 1% BSA. Washed bacteria (OD600 of 1) were mixed with allantodapsone or vehicle control before being added to the wells and incubated for 2 h at 37°C. Adherent cells were washed, fixed, and stained with crystal violet, and wells further washed. The dye was dissolved in acetic acid, and the absorbance measured at 570 nm. GST-L2v was used at 20 μM in A and D. CK10 was used at 10 nM. Test compounds were incubated with bacteria at 80 μM and normalized to the DMSO vehicle control in D. For data presented in B, recombinant ClfB was incubated with allantodapsone (100 μM) or DMSO (1%) for 30 min prior to being added to wells coated with recombinant GST-L2v loricrin. Bound ClfB was detected using peroxidase-conjugated anti-His monoclonal antibody in an ELISA. The graphs shown are representative of three independent experiments. Statistics were carried out using one-way ANOVA followed by the Dunnett’s posttest using GraphPad Prism version 9.0.
as §2

S. aureus Newman [3] = assay: Agglutination (fibrinogen clumping) assay; conditions: 100 μM allantodapsone; 5 mg/mL fibrinogen; stationary phase
Procedure: V. Microbiology: Materials and Methods
The MTT toxicity assay (1) (Vybrant MTT Cell Proliferation Assay, Molecular Probes, Or, USA) was used to measure cytotoxicity. Myeloid lineage, U-937 cells (2) were grown in RPMI-1640 (Gibco) culture medium supplemented with 10% foetal calf serum, 1% L-glutamine and 1% Penicillin/Streptomycin (Gibco). U-937 cells were centrifuged and cells diluted with fresh medium containing 1.2 mM MTT solution to a concentration of (5-6 x 10^6 per mL) and incubated at 37 °C for 2 h. Cells were centrifuged and the pellet dissolved in DMSO. The absorbance was read at 490 nm using the Wallac Victor2, (Shelton, Connecticut, USA).
Platelet aggregation was performed in platelet rich plasma according to O’Brien et al.
S. aureus Newman (stationary phase) was washed and diluted to an OD600 of 2.5.
This was mixed with 10 mg/mL of fibrinogen in 1:1 ratio resulting in a final concentration 5 mg/mL fibrinogen. Fibrinogen -bacteria aggregates clump and settle at the bottom of the tube resulting in a clear solution. These were compared to the turbid bacterial suspension in buffer by visual inspection. […]
of S. aureus Newman was used as an agonist to stimulate platelet aggregation. The FcγRIIa antibody IV.3 (StemCell Technologies, London, UK) was used at a concentration of […]. […] Data was analysed by repeated measures ANOVA followed by a multiple comparison Dunnett’s test. […]

Nc1ccc(S(=O)(=O)c2ccc(NCN3C(=O)NC(=O)C(=O)C3=O)cc2)cc1 [Allantodapsone]
minimum adhesion inhibitory concentration (MAIC) (S. aureus Newman [1]; S. aureus Newman stationary phase, concentration inhibiting greater than 90% adhesion to fibrinogen): 100 μM and 40.2 μg/mL | inhibition of adhesion to fibrinogen (S. aureus Newman [1]; S. aureus Newman, stationary and exponential phase, compounds screened at 70 μM (Fig. 2)): inhibited | IC50 (S. aureus Newman [1]; Staphylococcus aureus, NEWMAN, read-out: IC50, inhibition of adhesion to fibrinogen, S. aureus Newman exponential phase): 32.8 µM | IC50 (S. aureus Newman [1]; Staphylococcus aureus, NEWMAN, read-out: IC50, inhibition of adhesion to fibrinogen, S. aureus Newman stationary phase, fibrinogen 10 μg/mL): 23 µM | IC50 (S. aureus Newman [1]; read-out: IC50, inhibition of adhesion to fibrinogen, S. aureus Newman stationary phase, fibrinogen 10 μg/mL): 21.3 µM | inhibition of adhesion to fibrinogen (S. aureus SH1000; S. aureus SH1000, stationary and exponential phase, compounds screened at 70 μM (Fig. 2)): inhibited | IC50 (S. aureus SH1000; SH1000, read-out: IC50, inhibition of adhesion to fibrinogen, S. aureus SH1000 exponential phase): 15.6 µM | IC50 (S. aureus SH1000; SH1000, read-out: IC50, inhibition of adhesion to fibrinogen, S. aureus SH1000 stationary phase): 7.6 µM | concentration giving full inhibition of adhesion to L2v loricrin (S. aureus Newman [2]): 40 µM | concentration giving full inhibition of adhesion to L2v loricrin (S. aureus Newman [2]; listed as allantodapsone): 16.1 µg/mL | IC50 (S. aureus Newman [2]; Staphylococcus aureus, NEWMAN, read-out: IC50, inhibition of adhesion to L2v loricrin): 9.87 µM | inhibition of clumping of bacteria in fibrinogen (S. aureus Newman [3]): did not inhibit
